The values below come from patent US4999042A, “Phenyl oximino-acetate fungicides” (Imperial Chemical Industries PLC, priority 1986, dated 1991).

Each structure is given as a SMILES string. Where two headings read alike, the source gives them in different places.

What all share (assay type): in vivo
Series [1] deals with Erysiphe graminis hordei (barley). In words: Foliar fungal disease control, Erysiphe graminis hordei on barley. The following applies: inoculated 24 hours before treatment.
Series [2] deals with Cercospora arachidicola (peanut). In words: Foliar fungal disease control, Cercospora arachidicola on peanut.
Series [3] deals with Venturia inaequalis (apple). The series can be described thus: Foliar fungal disease control, Venturia inaequalis on apple.
Series [4] has as its system Puccinia recondita (wheat). The series can be described thus: Foliar fungal disease control, Puccinia recondita on wheat.
The subject of another series is Maize (MZ). The series can be described thus: Plant growth regulating whole plant screen, maize. Particulars: 4000 ppm (4 kg/ha) spray. On the procedure: (§1) This Example illustrates the plant growth regulating properties of compounds 1, 2, 5 and 12-15 of Table I when tested on a whole plant screen against two species of plant. The plant species are identified in Table IV with the leaf stage at which they were sprayed.
(§2) A formulation of each chemical was applied at 4000 ppm (4 kg/ha in a 1000 1/ha field volume) using a tracksprayer and a SS8004E (Teejet) nozzle.
(§3) After spraying, the plants were grown in a glasshouse with 25° C. day/22° C. night temperatures. Supplementary lighting was supplied when necessary to provide an average photoperiod of 16 hours (14 hours minimum).
(§4) After 2-6 weeks in the glasshouse, depending on species and time of year, the plants were visually assessed for morphological characteristics against a control plant sprayed with a blank formulation.

Series [5] relates to Pyricularia oryzae (rice).
Series [6] has as its system Plasmopara viticola (vine). In words: Foliar fungal disease control, Plasmopara viticola on vine.
Another series has as its system Apple (AP). In words: Plant growth regulating whole plant screen, apple. Particulars: 4000 ppm (4 kg/ha) spray, visual score after 2-6 weeks. The method, then: as §1, §2, §3, §4
Setting [7] is: 100 ppm foliar spray plus root drench approx. 40 ppm a.i./dry soil.
Setting [8] is: 100 ppm foliar spray plus root drench approx. 40 ppm a.i./dry soil, 1-2 days before inoculation.

In the case of `CON=C(C(=O)OC)c1ccccc1/C=C/c1ccccc1` (single isomer, unassigned) [Compound 1, methyl O-methyl (2-(E)-styrylphenyl)oximino-acetate], the “disease control grading, ERYSIPHE GRAMINIS HORDEI (BARLEY)” value (shortened to “disease control grading … (BARLEY)”) in series [1] (setting [7]) is 0 (60-100% of disease on untreated plants). The “disease control grading, CERCOSPORA ARACHIDICOLA (PEANUT)” value (“disease control grading … (PEANUT)” below) in series [2] (setting [8]) is 0 (60-100% of disease on untreated plants). Also, in series [3] (setting [8]), the “disease control grading, VENTURIA INAEQUALIS (APPLE)” value (“disease control grading … (APPLE)” below) was 3 (trace - 5% of disease on untreated plants). In addition, the “disease control grading, PUCCINIA RECONDITA (WHEAT)” value (shortened to “disease control grading … (WHEAT)”) in series [4] (setting [8]) is recorded as 0 (60-100% of disease on untreated plants). In addition, in the series on Maize (MZ) (after 2-6 weeks), the “P = Phytotoxicity” value is 1 (less than 10%). Besides, in the series with Maize (MZ) (visual score after 2-6 weeks), the “A = Apical damage” value is given as 3 (61-100%), the “G = Greening effect” value is on record as 2 (31-60%), the “I = Interligular or internodal length reduction” value is on record as 3 (61-100%) and the “R = Retardation” value is given as 3 (61-100%). Further, the “disease control grading, P[…] (RICE)” value in series [5] (setting [8]) is recorded as 0 (60-100% of disease on untreated plants). In series [6] (setting [8]), the “disease control grading, PLASMOPARA VITICOLA (VINE)” value (shortened to “disease control grading … (VINE)”) amounted to 4.
Turning to `CON=C(C(=O)OC)c1ccccc1/C=C/c1ccco1` (single isomer, unassigned) [Compound 3], the “disease control grading … (BARLEY)” value in series [1] (setting [7]) is recorded as 0 (60-100% of disease on untreated plants). In series [2] (setting [8]), the “disease control grading … (PEANUT)” value is 0 (60-100% of disease on untreated plants). Besides, the “disease control grading … (APPLE)” value in series [3] (setting [8]) came out at 4. Besides, the “disease control grading … (WHEAT)” value in series [4] (setting [8]) was 0 (60-100% of disease on untreated plants). Also, the “disease control grading, P[…] (RICE)” value in series [5] (setting [8]) was 0 (60-100% of disease on untreated plants). In series [6] (setting [8]), the “disease control grading … (VINE)” value is recorded as 0 (60-100% of disease on untreated plants).
For `CON=C(C(=O)OC)c1ccccc1/C=C/c1ccco1` (single isomer, unassigned) [Compound 4], the “disease control grading … (BARLEY)” value in series [1] (setting [7]) is 0 (60-100% of disease on untreated plants). In series [2] (setting [8]), the “disease control grading … (PEANUT)” value was 3 (trace - 5% of disease on untreated plants). The “disease control grading … (APPLE)” value in series [3] (setting [8]) is given as 4. The “disease control grading … (WHEAT)” value in series [4] (setting [8]) came out at 4. For the same molecule, the “disease control grading, P[…] (RICE)” value in series [5] (setting [8]) is reported as 3 (trace - 5% of disease on untreated plants). Further, in series [6] (setting [8]), the “disease control grading … (VINE)” value turned out to be 4.
Take `CON=C(C(=O)OC)c1ccccc1Oc1ccc([N+](=O)[O-])cc1` (single isomer, unassigned) [Compound 7]: the “disease control grading … (BARLEY)” value in series [1] (setting [7]) is listed as 1 (26-59% of disease on untreated plants). The “disease control grading … (PEANUT)” value in series [2] (setting [8]) was 0 (60-100% of disease on untreated plants). The “disease control grading … (APPLE)” value in series [3] (setting [8]) was 3 (trace - 5% of disease on untreated plants). Besides, the “disease control grading … (WHEAT)” value in series [4] (setting [8]) is given as 0 (60-100% of disease on untreated plants). Further, the “disease control grading, P[…] (RICE)” value in series [5] (setting [8]) is listed as 0 (60-100% of disease on untreated plants). The “disease control grading … (VINE)” value in series [6] (setting [8]) is 3 (trace - 5% of disease on untreated plants).
Regarding `CON=C(C(=O)OC)c1ccccc1OC1CCCCC1` (single isomer, unassigned) [Compound 10], the “disease control grading … (BARLEY)” value in series [1] (25 ppm foliar spray only) is 3 (trace - 5% of disease on untreated plants). The “disease control grading … (PEANUT)” value in series [2] (25 ppm foliar spray only) was 0 (60-100% of disease on untreated plants). Further, the “disease control grading … (APPLE)” value in series [3] (25 ppm foliar spray only) is listed as 2 (6-25% of disease on untreated plants). Further, the “disease control grading … (WHEAT)” value in series [4] (25 ppm foliar spray only) is recorded as 3 (trace - 5% of disease on untreated plants). In series [5] (25 ppm foliar spray only), the “disease control grading, P[…] (RICE)” value is listed as 3 (trace - 5% of disease on untreated plants). Further, in series [6] (25 ppm foliar spray only), the “disease control grading … (VINE)” value is listed as 2 (6-25% of disease on untreated plants).
With `CON=C(C(=O)OC)c1ccccc1NC(=O)c1ccccc1` (single isomer, unassigned) [Compound 12], in the series on Maize (MZ) (visual score after 2-6 weeks), the “I = Interligular or internodal length reduction” value is given as 1 (10-30%) and the “R = Retardation” value is on record as 2 (31-60%). In addition, in the series with Apple (AP), the “G = Greening effect” value is given as 1 (10-30%), the “I = Interligular or internodal length reduction” value is reported as 1 (10-30%) and the “R = Retardation” value is 2 (31-60%).
With `CON=C(C(=O)OC)c1ccccc1NC(=O)c1ccco1` (single isomer, unassigned) [Compound 13], the “disease control grading … (BARLEY)” value in series [1] (setting [7]) is reported as 0 (60-100% of disease on untreated plants). In addition, the “disease control grading … (PEANUT)” value in series [2] (setting [8]) was 2 (6-25% of disease on untreated plants). Moreover, the “disease control grading … (WHEAT)” value in series [4] (setting [8]) was 0 (60-100% of disease on untreated plants). In the series on Maize (MZ) (visual score after 2-6 weeks), the “I = Interligular or internodal length reduction” value is 1 (10-30%) and the “R = Retardation” value is listed as 2 (31-60%). Moreover, the “disease control grading, P[…] (RICE)” value in series [5] (setting [8]) was 0 (60-100% of disease on untreated plants). The “disease control grading … (VINE)” value in series [6] (setting [8]) is reported as 0 (60-100% of disease on untreated plants). In the series on Apple (AP), the “G = Greening effect” value is 1 (10-30%), the “I = Interligular or internodal length reduction” value is reported as 1 (10-30%) and the “R = Retardation” value is listed as 2 (31-60%).
`CON=C(C(=O)OC)c1ccccc1NC(=O)c1ccco1` (single isomer, unassigned) [Compound 14]: in the series with Apple (AP), the “I = Interligular or internodal length reduction” value is recorded as 1 (10-30%) and the “R = Retardation” value is 1 (10-30%).
As to `CON=C(C(=O)OC)c1ccccc1NC(=O)c1cccs1` (single isomer, unassigned) [Compound 15], in the series with Apple (AP), the “G = Greening effect” value is 1 (10-30%), the “I = Interligular or internodal length reduction” value is 1 (10-30%) and the “R = Retardation” value is 1 (10-30%).
For the molecule `CON=C(C(=O)OC)c1cccc2c1oc1ccccc12` (single isomer, unassigned) [Compound 17], the “disease control grading … (BARLEY)” value in series [1] (setting [7]) is on record as 0 (60-100% of disease on untreated plants). Moreover, the “disease control grading … (PEANUT)” value in series [2] (setting [8]) was 0 (60-100% of disease on untreated plants). Further, the “disease control grading … (APPLE)” value in series [3] (setting [8]) is 1 (26-59% of disease on untreated plants). For the same molecule, in series [4] (setting [8]), the “disease control grading … (WHEAT)” value is 3 (trace - 5% of disease on untreated plants). Moreover, in series [5] (setting [8]), the “disease control grading, P[…] (RICE)” value was 0 (60-100% of disease on untreated plants). The “disease control grading … (VINE)” value in series [6] (setting [8]) is 2 (6-25% of disease on untreated plants).
On to `CON=C(C(=O)OC)c1cccc2c1oc1ccccc12` (single isomer, unassigned) [Compound 18], for which, in series [1] (setting [7]), the “disease control grading … (BARLEY)” value is 0 (60-100% of disease on untreated plants). The “disease control grading … (PEANUT)” value in series [2] (setting [8]) is recorded as 1 (26-59% of disease on untreated plants). In series [3] (setting [8]), the “disease control grading … (APPLE)” value came to 4. The “disease control grading … (WHEAT)” value in series [4] (setting [8]) was 3 (trace - 5% of disease on untreated plants). Besides, the “disease control grading, P[…] (RICE)” value in series [5] (setting [8]) is given as 1 (26-59% of disease on untreated plants). The “disease control grading … (VINE)” value in series [6] (setting [8]) is 4.
As for `CON=C(C(=O)OC)c1cccc2c1Oc1ccccc1O2` (single isomer, unassigned) [Compound 32], in series [1] (setting [7]), the “disease control grading … (BARLEY)” value is 3 (trace - 5% of disease on untreated plants). In addition, the “disease control grading … (PEANUT)” value in series [2] (setting [8]) was 1 (26-59% of disease on untreated plants). Moreover, in series [3] (setting [8]), the “disease control grading … (APPLE)” value is given as 2 (6-25% of disease on untreated plants). Besides, the “disease control grading … (WHEAT)” value in series [4] (setting [8]) was determined as 4. For the same molecule, the “disease control grading, P[…] (RICE)” value in series [5] (setting [8]) was 0 (60-100% of disease on untreated plants). The “disease control grading … (VINE)” value in series [6] (setting [8]) is recorded as 4.
Consider `CON=C(C(=O)OC)c1ccccc1N(C)C(=O)c1cccs1` (single isomer, unassigned) [Compound 33], for which the “disease control grading … (BARLEY)” value in series [1] (setting [7]) is given as 0 (60-100% of disease on untreated plants). Besides, the “disease control grading … (PEANUT)” value in series [2] (setting [8]) is 0 (60-100% of disease on untreated plants). Also, in series [3] (setting [8]), the “disease control grading … (APPLE)” value is on record as 4. For the same molecule, the “disease control grading … (WHEAT)” value in series [4] (setting [8]) is 0 (60-100% of disease on untreated plants). In addition, the “disease control grading, P[…] (RICE)” value in series [5] (setting [8]) is 0 (60-100% of disease on untreated plants). The “disease control grading … (VINE)” value in series [6] (setting [8]) is 0 (60-100% of disease on untreated plants).
As to `CO/N=C(/C(=O)OC)c1ccccc1Oc1ccccc1` [Compound 6, methyl O-methyl(2-phenoxyphenyl)oximino-acetate], the “disease control grading … (BARLEY)” value in series [1] (setting [7]) worked out at 4. For the same molecule, the “disease control grading … (PEANUT)” value in series [2] (setting [8]) is given as 3 (trace - 5% of disease on untreated plants). The “disease control grading … (APPLE)” value in series [3] (setting [8]) came out at 4. In series [4] (setting [8]), the “disease control grading … (WHEAT)” value is given as 4. Besides, in series [5] (setting [8]), the “disease control grading, P[…] (RICE)” value is recorded as 3 (trace - 5% of disease on untreated plants). Further, the “disease control grading … (VINE)” value in series [6] (setting [8]) was found to be 4.
